Experimental data from PubChem BioAssay AID1552 (Sanford-Burnham Center for Chemical Genomics, 2009).
Activity calls are given as the source filed them. The rule behind the calls is not given here.

target: Ubiquitin-conjugating enzyme E2 N (Homo sapiens) (UniProt P61088); assay: UBE2N binders by NMR, biophysical, purified protein (AID 1552); details: NMR binding to purified UBE2N
Sequence (P61088 whole entry, looked up): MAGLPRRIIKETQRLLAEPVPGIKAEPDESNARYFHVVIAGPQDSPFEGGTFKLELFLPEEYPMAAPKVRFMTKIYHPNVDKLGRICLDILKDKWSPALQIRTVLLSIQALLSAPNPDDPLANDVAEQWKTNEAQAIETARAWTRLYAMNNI

Row | Structure (SMILES) | Kd
1 | CC(CCC(=O)O)[C@H]1CCC2C3C(C[C@H](O)[C@@]21C)[C@@]1(C)CC[C@@H](O)C[C@H]1C[C@H]3O (stereo not given in full) | > 4 mM (inactive)
2 | NC(=O)c1ccc(N2C(=O)C=CC2=O)cc1Cl | > 4 mM (inactive)
3 | CN=C(c1ccc([N+](=O)[O-])cc1)N(C)C | > 4 mM (inactive)
4 | CC12OC(=O)CC3C(C)(C)[C@H](O)C=C[C@]3(C)C1CC[C@]1(C)C2=CC(=O)O[C@H]1c1ccoc1 (stereo not given in full) | > 4 mM (inactive)
5 | O=C(O)c1ccc(N2CCOCC2)cc1 | > 4 mM (inactive)
6 | CCN1CCC(=NO)CC1 | > 4 mM (inactive)
7 | O=C(O)CC1C(=O)NCCN1Cc1cccs1 (stereo not given) | > 4 mM (inactive)
8 | O=C(NC(=S)NC1CCSC1=O)c1ccco1 (stereo not given) | > 4 mM (inactive)
9 | O=C1CSC(=S)N1N1C(=O)C2C3C=CC(C3)C2C1=O (stereo not given) | > 4 mM (inactive)
10 | O=C(c1ccc(Cl)s1)N1CCOCC1 | > 4 mM (inactive)
11 | COc1nc(N2CCOCC2)nc(N)c1[N+](=O)[O-] | > 4 mM (inactive)
12 | CCSc1nc(N)c(NC(=O)c2ccco2)c(=O)[nH]1 | > 4 mM (inactive)
13 | CCOC(=O)c1ccc(Oc2ccc(C)nn2)cc1 | > 4 mM (inactive)
14 | Cn1c(-c2ccccc2F)n[nH]c1=S | > 4 mM (inactive)
15 | O=C1CN(C(=O)c2ccccc2F)c2ccccc2N1 | > 4 mM (inactive)
16 | CNc1nc(OC)nc(N2CCOCC2)n1 | > 4 mM (inactive)
17 | COc1cc2nc(-c3cccs3)oc(=O)c2cc1OC | > 4 mM (inactive)
18 | O=C(Nc1ccncc1)c1c(F)cccc1F | > 4 mM (inactive)
19 | Cc1oc(-c2ccccc2)nc1CCO | > 4 mM (inactive)
20 | C=C[C@@](C)(O)CCC1C(=C)C[C@H](OC(C)=O)C2C(C)(C)CCCC12C (stereo not given in full) | > 4 mM (inactive)
21 | Cc1[nH]c2ccccc2c1CN(C)C | > 4 mM (inactive)
22 | CCCOn1nnnc1-c1ccccc1 | > 4 mM (inactive)
23 | O=C(O)c1cnc2sc3ccccc3n2c1=O | > 4 mM (inactive)
24 | O=C(O)c1csc2ccccc12 | > 4 mM (inactive)

Row | Structure (SMILES) | Kd
25 | OCc1nccn1Cc1ccccc1 | > 4 mM (inactive)
26 | CN1C(=O)/C(=C/c2ccccc2O)NC1=S | > 4 mM (inactive)
27 | CCn1cnc2sc(C(=O)O)c(C)c2c1=O | > 4 mM (inactive)
28 | O=C(Nc1ccon1)c1cc2c(s1)CCCC2 | > 4 mM (inactive)
29 | O=C(CSc1ncn[nH]1)c1ccc2c(c1)OCCO2 | > 4 mM (inactive)
30 | O=C1CCCCCN1CO | > 4 mM (inactive)
31 | O=C(Nc1ccc2c(c1)OCO2)c1ccc(=O)[nH]n1 | > 4 mM (inactive)
32 | O=C(c1ccc2c(c1)OCO2)N1CCC2(CC1)OCCO2 | > 4 mM (inactive)
33 | O=C(O)C1CCCCN1Cc1ccccc1 (stereo not given) | > 4 mM (inactive)
34 | O=C(Cc1c(F)cccc1Cl)Nc1ccon1 | > 4 mM (inactive)
35 | CC(=O)c1cccc(NS(=O)(=O)N2CCCCC2)c1 | > 4 mM (inactive)
36 | CC1CN(Cc2ccccn2)CCC1=O (stereo not given) | > 4 mM (inactive)
37 | CCC1=Nc2ccccc2-c2nnc(SC)nc2O1 | > 4 mM (inactive)
38 | Nc1c(F)c(F)nc(F)c1F | > 4 mM (inactive)
39 | O=S(=O)(CCN1CCCC1)c1ccccc1 | > 4 mM (inactive)
40 | O=C(O)Cc1c[nH]c2ccccc12 | > 4 mM (inactive)
41 | CC1=NN(c2ccc(N)cc2)C(=O)C1 | > 4 mM (inactive)
42 | CC1/C(=N/O)C[C@@H]2C[C@H]1C2(C)C (stereo not given in full) | > 4 mM (inactive)
43 | COc1ccc(/C=N/n2cn[nH]c2=S)cc1 | > 4 mM (inactive)
44 | O=C(O)c1cc2ccccc2cn1 | > 4 mM (inactive)
45 | O=S1(=O)C=CC(N2CCCCC2)C1 (stereo not given) | > 4 mM (inactive)
46 | COc1cc(OC)c2c(=O)c(-c3ccccc3)coc2c1 | > 4 mM (inactive)
47 | COc1ccc(NC(=O)C(N)=O)cc1Cl | > 4 mM (inactive)
48 | Clc1ccc(-c2noc(CN3CCCC3)n2)cc1 | > 4 mM (inactive)

Row | Structure (SMILES) | Kd
49 | CNc1nnc(CSc2nc(C)cc(C)n2)s1 | > 4 mM (inactive)
50 | CC(=O)Nc1nc2c(s1)C(=O)NCCC2 | > 4 mM (inactive)
51 | COc1cc(S(=O)(=O)N(C)C)ccc1F | > 4 mM (inactive)
52 | Cc1cc(C(=O)NCc2cccnc2)cs1 | > 4 mM (inactive)
53 | NC(=O)C1CCN(c2ncnc(N)c2[N+](=O)[O-])CC1 | > 4 mM (inactive)
54 | CC(C)(C)CC(=O)NNC(=O)c1cnccn1 | > 4 mM (inactive)
55 | Cc1ccnc(NS(=O)(=O)c2ccccc2)n1 | > 4 mM (inactive)
56 | CC(=O)O[C@H]1CC[C@@]2(C)C(=CCC3C2CC[C@@]2(C)C3CC[C@@H]2C(C)CCCC(C)C)C1 (stereo not given in full) | > 4 mM (inactive)
57 | Cc1cc(C(=O)NCc2ccco2)cs1 | > 4 mM (inactive)
58 | O=C(O)c1cccc(-n2cccc2)c1 | > 4 mM (inactive)
59 | CCCNC(=O)CSc1ncccc1C(=O)O | > 4 mM (inactive)
60 | CC12CN3CC(C)(CN(C1)C3c1cccs1)C2O (stereo not given) | > 4 mM (inactive)
61 | CC1=CCCC2C1(C)CCC(C)C2(C)CC/C(C)=C/C[n+]1cn(C)c2c(N)ncnc21 (stereo not given) | > 4 mM (inactive)
62 | O=CN1CCN(C2CC(=O)N(c3ccccc3)C2=O)CC1 (stereo not given) | > 4 mM (inactive)
63 | NC(=O)Cc1nc2ccccc2[nH]1 | > 4 mM (inactive)
64 | NC(=O)/C=C/C(=O)Nc1ccccc1 | > 4 mM (inactive)
65 | COc1ccc(-c2cc3nc4n(c(=O)c3s2)CCC4)cc1 | > 4 mM (inactive)
66 | Cc1nn(C)c(Cl)c1S(=O)(=O)N1CCOCC1 | > 4 mM (inactive)
67 | C[C@@H]1C(=O)OC2[C@H](O)C34[C@@H]5OC(=O)[C@@]3(O[C@@H]3OC(=O)[C@H](O)[C@@]34[C@H](C(C)(C)C)[C@H]5O)[C@]21O (stereo not given in full) | > 4 mM (inactive)
68 | COC(=O)c1cccc(C(F)(F)F)c1 | > 4 mM (inactive)
69 | OCc1ccc(N2CCOCC2)nc1 | > 4 mM (inactive)
70 | O=C(O)c1cc(O)c2c(c1)C(=O)c1cc(O)cc(O)c1C2=O | > 4 mM (inactive)
71 | O=C(c1nc2ncccn2n1)N1CCc2ccccc2C1 | > 4 mM (inactive)
72 | COc1cc2c(cc1OC)Cc1cc(OC)c(OC)cc1Cc1cc(OC)c(OC)cc1C2 | > 4 mM (inactive)

Row | Structure (SMILES) | Kd
73 | Cc1cc(=O)oc2c1c(C)nn2CN1CCN(C)CC1 | > 4 mM (inactive)
74 | CN1C(=O)c2ccc(C(=O)NCc3ccccc3)cc2C1=O | > 4 mM (inactive)
75 | Cc1nc2nc(Cc3ccccc3)[nH]n2c(=O)c1Cl | > 4 mM (inactive)
76 | CC1(C)N=C2C(=[N+]1[O-])CCC/C2=N\O | > 4 mM (inactive)
77 | O=C1CC(N2CCC(O)CC2)C(=O)N1c1ccc(F)cc1 (stereo not given) | > 4 mM (inactive)
78 | N#Cc1nc(-c2cccs2)oc1N1CCOCC1 | > 4 mM (inactive)
79 | CSc1nnc(CN2CCSCC2)n1C | > 4 mM (inactive)
80 | O=C(NCO)c1ccccc1Cl | > 4 mM (inactive)
81 | COc1cc(O)c(C)c(O)c1 | > 4 mM (inactive)
82 | O=C(c1ccco1)N1CCN(c2ccc(Cl)cc2)CC1 | > 4 mM (inactive)
83 | CC(=O)Nc1ccc(C)cc1NC(C)=O | > 4 mM (inactive)
84 | CC(C)CC(=O)NC1CCSC1=O (stereo not given) | > 4 mM (inactive)
85 | O=C(O)C1CSC(c2ccccc2)N1 (stereo not given) | > 4 mM (inactive)
86 | COc1ccc(C2NC(C(=O)O)CS2)cc1 (stereo not given) | > 4 mM (inactive)
87 | COc1ccc([C@@H]2CC(=O)c3c(O)cc(O[C@@H]4O[C@H](CO[C@H]5O[C@@H](C)[C@H](O)[C@@H](O)[C@H]5O)[C@@H](O)[C@H](O)[C@H]4O)cc3O2)cc1O | > 4 mM (inactive)
88 | Nc1ccc(-c2cnco2)cc1 | > 4 mM (inactive)
89 | O=c1cc(-c2ccccc2)oc2c(O)c(O)ccc12 | > 4 mM (inactive)
90 | CCC(C)OC1CCS(=O)(=O)C1 (stereo not given) | > 4 mM (inactive)
91 | COc1cccc(/C=C2/SC(N)=NC2=O)c1 | > 4 mM (inactive)
92 | O=C(NCN1CCOCC1)c1cccnc1 | > 4 mM (inactive)
93 | O=C1CCCC2C3CC(CN12)[C@@H]1CCCCN1C3 (stereo not given in full) | > 4 mM (inactive)
94 | CC(=O)NC(=S)Nc1ccccc1C(N)=O | > 4 mM (inactive)
95 | Cc1noc(C)c1C(=O)Nc1ccccc1-c1ccccc1 | > 4 mM (inactive)
96 | Clc1ccccc1-c1nc(-c2cccnc2)no1 | > 4 mM (inactive)

Row | Structure (SMILES) | Kd
97 | Cn1c(=O)c2cn3ncccc3c2n(C)c1=O | > 4 mM (inactive)
98 | O=C(NCc1ccco1)c1nc2ncccn2n1 | > 4 mM (inactive)
99 | Nc1cc(=O)[nH]c(=O)n1-c1ccccc1 | > 4 mM (inactive)
100 | O=C(O)CC1NCCNC1=O (stereo not given) | > 4 mM (inactive)
101 | O=c1[nH]nc(Cc2ccccn2)c2ccccc12 | > 4 mM (inactive)
102 | COc1ccc(CN2CCOCC2)c(C)c1C | > 4 mM (inactive)
103 | O=C(O)CCCc1nc2ccccc2s1 | > 4 mM (inactive)
104 | COc1c2c(c(CC=C(C)C)c3oc(=O)c(-c4ccc(O)cc4)c(O)c13)OC(C)(C)C=C2 | > 4 mM (inactive)
105 | CCc1c(C(=O)Nc2ccncc2)csc1C | > 4 mM (inactive)
106 | Cc1cc(C)n2nc(C(=O)Nc3cccnc3)nc2n1 | > 4 mM (inactive)
107 | CC1(C)NC(=O)N(CCOc2ccc3c(c2)CCC3)C1=O | > 4 mM (inactive)
108 | OCc1csc(-c2ccccc2)n1 | > 4 mM (inactive)
109 | CS(=O)(=O)c1ccccc1C(=O)Nc1nccs1 | > 4 mM (inactive)
110 | CC(C)CCCC(C)C1CCC2C3=CC[C@H]4C[C@@H](O)CC[C@]4(C)C3CC[C@@]21C (stereo not given in full) | > 4 mM (inactive)
111 | N#CCCn1ccnc1-c1ccccc1 | > 4 mM (inactive)
112 | O=C(O)c1cccc2c1OCCCO2 | > 4 mM (inactive)
113 | Cc1c(N=Cc2ccc[nH]2)c(=O)n(-c2ccccc2)n1C | > 4 mM (inactive)
114 | Cc1cc2ncn(S(=O)(=O)N3CCOCC3)c2cc1C | > 4 mM (inactive)
115 | COc1cc2c(cc1-c1cc3cc4ccoc4cc3oc1=O)OCO2 | > 4 mM (inactive)
116 | CCOc1ccc(C(=O)c2ccc(O)c(O)c2O)cc1 | > 4 mM (inactive)
117 | Cn1nc(C(=O)NC2CCCCC2)c2ccccc2c1=O | > 4 mM (inactive)
118 | COc1c2ccoc2cc2oc(C)cc(=O)c12 | > 4 mM (inactive)
119 | CC(=O)c1nnc2cc(C)nn2c1C | > 4 mM (inactive)
120 | O=C1CCN(c2ccccc2)N1 | > 4 mM (inactive)
